For this experiment, the system named is BDF1 mice, B16 melanoma s.c., survival/tumor T/C. Kind of experiment: NCI In Vivo Anticancer Drug Screen. Data for tumor model B16 Melanoma (subcutaneous) in B6D2F1 (BDF1) mice. The method, then: The antitumor activity of compounds was measured in mice bearing transplantable tumors. Survival or tumor size were measured and the results are expressed as the measurement made in the treated group (T) divided by the measurement made in the vehicle treated control group (C). The tumor model used in this assay is B16 Melanoma (subcutaneous) in B6D2F1 (BDF1) mice

SMILES strings stand for the structures. Where “and” joins values, the source holds several entries; their conditions need not be identical. Equal values may be shown once. Records with an inconclusive call do not appear.

As to `CO[C@@]12[C@H](COC(N)=O)C3=C(C(=O)C(C)=C(N)C3=O)N1C[C@@H]1N[C@@H]12`, the T/C was 95 % of control (endpoint: median survival time, dose: 0.25 mg/kg/injection, schedule: Q01DX009 (ip), vehicle: Klucel (hydroxypropylcellulose) (HPC), higher = longer survival); 110 % of control (endpoint: median survival time, dose: 0.5 mg/kg/injection, schedule: Q01DX009 (ip), vehicle: Klucel (hydroxypropylcellulose) (HPC), higher = longer survival); 154 % of control (endpoint: median survival time, dose: 2.0 mg/kg/injection, schedule: Q01DX009 (ip), vehicle: Klucel (hydroxypropylcellulose) (HPC), higher = longer survival); 77 % of control (endpoint: median tumor weight (est.), dose: 0.25 mg/kg/injection, schedule: Q01DX009 (ip), vehicle: saline, higher = larger tumour); 101 % of control (endpoint: median tumor weight (est.), dose: 0.5 mg/kg/injection, schedule: Q01DX009 (ip), vehicle: saline, higher = larger tumour); 70 % of control (endpoint: median tumor weight (est.), dose: 1.0 mg/kg/injection, schedule: Q01DX009 (ip), vehicle: saline, higher = larger tumour). For the same compound, under “endpoint: median tumor weight (est.), dose: 2.0 mg/kg/injection, schedule: Q01DX009 (ip), vehicle: saline, higher = larger tumour”, the T/C was 30 % of control.

As for `Cc1c(N)nc([C@H](CC(N)=O)NC[C@H](N)C(N)=O)nc1C(=O)N[C@H](C(=O)N[C@H](C)[C@@H](O)CC(=O)N[C@H](C(=O)NC(O[C@@H]1O[C@@H](C)[C@@H](N)[C@@H](O)[C@H]1O)C(O)c1nc(-c2nc(C(=O)NCCCCN)cs2)cs1)[C@@H](C)O)[C@@H](O[C@@H]1O[C@@H](CO)[C@@H](O)[C@H](O)[C@@H]1O[C@H]1O[C@H](CO)[C@@H](O)[C@H](OC(N)=O)[C@@H]1O)c1c[nH]cn1` (some centres not stated), the T/C by setting is: (endpoint: median survival time, dose: 0.12 mg/kg/injection, schedule: Q01DX009 (ip), vehicle: water, higher = longer survival) 109 % of control; (endpoint: median survival time, dose: 0.25 mg/kg/injection, schedule: Q01DX009 (ip), vehicle: water, higher = longer survival) 89 % of control; (endpoint: median survival time, dose: 1.0 mg/kg/injection, schedule: Q01DX009 (ip), vehicle: saline, higher = longer survival) 180 % of control; (endpoint: median survival time, dose: 2.0 mg/kg/injection, schedule: Q01DX009 (ip), vehicle: saline, higher = longer survival) 180 % of control; (endpoint: median survival time, dose: 2.0 mg/kg/injection, schedule: Q01DX009 (ip), vehicle: water, higher = longer survival) 91 % of control; (endpoint: median survival time, dose: 4.0 mg/kg/injection, schedule: Q01DX009 (ip), vehicle: saline, higher = longer survival) 180 % of control. Further, the T/C (endpoint: median survival time, dose: 8.0 mg/kg/injection, schedule: Q01DX009 (ip), vehicle: saline, higher = longer survival) was 206 % of control; the T/C (endpoint: median survival time, dose: 12.0 mg/kg/injection, schedule: Q01DX009 (ip), vehicle: saline, higher = longer survival) is 174 % of control; the T/C (endpoint: median survival time, dose: 16.0 mg/kg/injection, schedule: Q01DX009 (ip), vehicle: saline, higher = longer survival) was 180 % of control.

Regarding `C[C@@H]1CC[C@@]2(NC1)O[C@H]1C[C@H]3[C@@H]4CC=C5C[C@@H](O)CC[C@]5(C)[C@H]4CC[C@]3(C)[C@H]1[C@@H]2C`, the T/C reads like this: (endpoint: median survival time, dose: 0.78 mg/kg/injection, schedule: Q01DX009 (ip), vehicle: Klucel (hydroxypropylcellulose) (HPC), higher = longer survival) 121 % of control; (endpoint: median survival time, dose: 1.56 mg/kg/injection, schedule: Q01DX009 (ip), vehicle: Klucel (hydroxypropylcellulose) (HPC), higher = longer survival) 121 % of control; (endpoint: median survival time, dose: 6.25 mg/kg/injection, schedule: Q01DX009 (ip), vehicle: Klucel (hydroxypropylcellulose) (HPC), higher = longer survival) 120 % of control.

As to `O=c1[nH]c(=O)n(C2CC(O)C(CO)O2)cc1F` (configuration not stated), the T/C is, setting by setting: (endpoint: median survival time, dose: 25.0 mg/kg/injection, schedule: Q01DX009 (ip), vehicle: saline with Tween-80, higher = longer survival) 109 % of control; (endpoint: median survival time, dose: 100.0 mg/kg/injection, schedule: Q01DX009 (ip), vehicle: saline with Tween-80, higher = longer survival) 122 % of control; (endpoint: median survival time, dose: 200.0 mg/kg/injection, schedule: Q01DX009 (ip), vehicle: saline with Tween-80, higher = longer survival) 120 % of control; (endpoint: median survival time, dose: 200.0 mg/kg/injection, schedule: Q04DX003 (ip), vehicle: saline, higher = longer survival) 112 % of control; (endpoint: median tumor weight (est.), dose: 25.0 mg/kg/injection, schedule: Q01DX009 (ip), vehicle: saline with Tween-80, higher = larger tumour) 68 % of control; (endpoint: median tumor weight (est.), dose: 50.0 mg/kg/injection, schedule: Q01DX009 (ip), vehicle: saline with Tween-80, higher = larger tumour) 59 % of control. The T/C is, setting by setting: (endpoint: median tumor weight (est.), dose: 50.0 mg/kg/injection, schedule: Q01DX009 (ip), vehicle: saline, higher = larger tumour) 96 % of control and 220 % of control; (endpoint: median tumor weight (est.), dose: 100.0 mg/kg/injection, schedule: Q01DX009 (ip), vehicle: saline with Tween-80, higher = larger tumour) 41 % of control; (endpoint: median tumor weight (est.), dose: 100.0 mg/kg/injection, schedule: Q01DX009 (ip), vehicle: saline, higher = larger tumour) 49 % of control and 71 % of control; (endpoint: median tumor weight (est.), dose: 200.0 mg/kg/injection, schedule: Q01DX009 (ip), vehicle: saline, higher = larger tumour) 55 % of control.

Consider `c1ccc(-c2csc3c4ccccc4c4ccccc4[n+]23)cc1`, for which the T/C by setting is: (endpoint: median survival time, dose: 0.5 mg/kg/injection, schedule: Q01DX009 (ip), vehicle: suspension in saline, higher = longer survival) 114 % of control; (endpoint: median survival time, dose: 1.0 mg/kg/injection, schedule: Q01DX009 (ip), vehicle: suspension in saline, higher = longer survival) 124 % of control.

With `CO[C@H]1C[C@](C)(O)Cc2cc3c(c(O)c21)C(=O)c1c(O)cc2c(c1C3=O)O[C@@H]1O[C@@]2(C)[C@H](O)[C@@H](N(C)C)[C@@H]1O`, the T/C is 104 % of control (endpoint: median survival time, dose: 6.25 mg/kg/injection, schedule: Q01DX009 (ip), vehicle: other, higher = longer survival) and 95 % of control (endpoint: median survival time, dose: 12.5 mg/kg/injection, schedule: Q01DX009 (ip), vehicle: other, higher = longer survival).

As for `O=C1CSC(=S)N1c1ccco1`, the T/C is 111 % of control (endpoint: median survival time, dose: 50.0 mg/kg/injection, schedule: Q01DX009 (ip), vehicle: Klucel (hydroxypropylcellulose) (HPC), higher = longer survival) and 118 % of control (endpoint: median survival time, dose: 400.0 mg/kg/injection, schedule: Q01DX009 (ip), vehicle: Klucel (hydroxypropylcellulose) (HPC), higher = longer survival).

With `O=C(O)CCC(=O)O`, the T/C (endpoint: median survival time, dose: 5.0 mg/kg/injection, schedule: Q01DX009 (ip), vehicle: water, higher = longer survival) was 117 % of control and 102 % of control; the T/C (endpoint: median survival time, dose: 40.0 mg/kg/injection, schedule: Q01DX009 (ip), vehicle: water, higher = longer survival) is 114 % of control [middle of 6 runs]; the T/C (endpoint: median survival time, dose: 80.0 mg/kg/injection, schedule: Q01DX009 (ip), vehicle: water, higher = longer survival) was 97 % of control [middle of 5 runs]; the T/C (endpoint: median survival time, dose: 160.0 mg/kg/injection, schedule: Q01DX009 (ip), vehicle: water, higher = longer survival) was 96 % of control [middle of 4 runs].

With `N/C(=N\Cl)C(Cl)(Cl)Cl`, the T/C reads like this: (endpoint: median survival time, dose: 6.25 mg/kg/injection, schedule: Q01DX009 (ip), vehicle: saline with Tween-80, higher = longer survival) 102 % of control; (endpoint: median survival time, dose: 12.5 mg/kg/injection, schedule: Q01DX009 (ip), vehicle: saline with Tween-80, higher = longer survival) 98 % of control; (endpoint: median survival time, dose: 50.0 mg/kg/injection, schedule: Q01DX009 (ip), vehicle: saline with Tween-80, higher = longer survival) 94 % of control.

As for `COC(=O)[C@@H]1c2cc3c(c(O)c2[C@@H](OC2OC(C)C(OC)C(C)(OC)C2OC)C[C@]1(C)O)C(=O)c1c(O)cc2c(c1C3=O)O[C@H]1O[C@]2(C)[C@H](O)[C@@H](N(C)C)[C@@H]1O` (some centres not stated), the T/C runs as follows: (endpoint: median survival time, dose: 0.5 mg/kg/injection, schedule: Q01DX009 (ip), vehicle: other, higher = longer survival) 90 % of control; (endpoint: median survival time, dose: 125.0 micrograms/kg/injection, schedule: Q01DX009 (ip), vehicle: saline + alcohol, higher = longer survival) 118 % of control; (endpoint: median survival time, dose: 500.0 micrograms/kg/injection, schedule: Q01DX009 (ip), vehicle: saline + alcohol, higher = longer survival) 118 % of control; (endpoint: median survival time, dose: 1000.0 micrograms/kg/injection, schedule: Q01DX009 (ip), vehicle: saline + alcohol, higher = longer survival) 109 % of control.

Consider `COC(=O)Nc1cccc(-c2nc3ccc(NC(=O)OC)cc3c(=O)n2-c2ccccc2)c1`, for which the T/C was 99 % of control (endpoint: median survival time, dose: 50.0 mg/kg/injection, schedule: Q04DX005 (ip), vehicle: other, higher = longer survival); 115 % of control (endpoint: median survival time, dose: 100.0 mg/kg/injection, schedule: Q04DX005 (ip), vehicle: other, higher = longer survival); 102 % of control (endpoint: median survival time, dose: 100.0 mg/kg/injection, schedule: Q04DX005 (oral), vehicle: other, higher = longer survival); 94 % of control (endpoint: median survival time, dose: 200.0 mg/kg/injection, schedule: Q04DX005 (oral), vehicle: other, higher = longer survival).

For the compound `Nc1nncs1`, the T/C reads like this: (endpoint: median survival time, dose: 59.0 mg/kg/injection, schedule: Q01DX009 (ip), vehicle: saline with Tween-80, higher = longer survival) 108 % of control; (endpoint: median survival time, dose: 1200.0 mg/kg/injection, schedule: Q04DX003 (ip), vehicle: saline with Tween-80, higher = longer survival) 121 % of control; (endpoint: median survival time, dose: 1800.0 mg/kg/injection, schedule: Q04DX003 (ip), vehicle: saline with Tween-80, higher = longer survival) 104 % of control; (endpoint: median survival time, dose: 2000.0 mg/kg/injection, schedule: Q01DX001 (ip), vehicle: saline with Tween-80, higher = longer survival) 108 % of control; (endpoint: median survival time, dose: 3000.0 mg/kg/injection, schedule: Q01DX001 (ip), vehicle: saline with Tween-80, higher = longer survival) 113 % of control.

Regarding `O=C1C=CC(=O)N1c1ccc(Cl)cc1`, the T/C (endpoint: median survival time, dose: 1.25 mg/kg/injection, schedule: Q01DX009 (ip), vehicle: Klucel (hydroxypropylcellulose) (HPC), higher = longer survival) was 123 % of control; the T/C (endpoint: median survival time, dose: 5.0 mg/kg/injection, schedule: Q01DX009 (ip), vehicle: Klucel (hydroxypropylcellulose) (HPC), higher = longer survival) was 102 % of control; the T/C (endpoint: median survival time, dose: 10.0 mg/kg/injection, schedule: Q01DX009 (ip), vehicle: Klucel (hydroxypropylcellulose) (HPC), higher = longer survival) was 89 % of control; the T/C (endpoint: median survival time, dose: 20.0 mg/kg/injection, schedule: Q01DX009 (ip), vehicle: Klucel (hydroxypropylcellulose) (HPC), higher = longer survival) is 98 % of control.

Regarding `CS(C)=O`, the T/C runs as follows: (endpoint: median survival time, dose: 1.5 grams/kg/injection, schedule: Q01DX009 (ip), vehicle: saline, higher = longer survival) 105 % of control; (endpoint: median survival time, dose: 3.0 grams/kg/injection, schedule: Q01DX009 (ip), vehicle: saline, higher = longer survival) 109 % of control and 111 % of control; (endpoint: median survival time, dose: 6.0 grams/kg/injection, schedule: Q01DX009 (ip), vehicle: saline, higher = longer survival) 96 % of control and 108 % of control.
